Measured values published in patent publication US9586931B2 (Merck Sharp & Dohme Corp., priority 2012, dated 2017).

Biological target: T1, recombinant human GST-Syk (Homo sapiens, UniProt P43405)
T1 construct: purchased Carna Biosciences 08-176
Assay: Homogeneous Time-Resolved Fluorescence (HTRF) assay for the recombinant human Syk enzyme
Format: biochemical
Settings: recombinant human GST-Syk 5 pM, ATP 25 μM, 10-dose titration 10 μM to 0.508 nM; read-out: rhSYK Activity IC50
Method in brief: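 GST-hSyk fusion protein phosphorylated a peptide for 45 min at room temperature. The reaction was quenched with 2 nM Eu-anti-phosphotyrosine antibody and 70 nM SA-APC in 15 mM Tris pH 7.5, 40 mM EDTA, 0.01% Tween 20. The HTRF signal was read after 30 min.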

IC50 | Compound
9 nM | Cc1cc(Nc2cc(C(F)F)ccn2)nc(-c2cn(CC(C)(O)CC#N)nn2)c1 (single isomer, unassigned) [Example 23.2, 4-(4-(6-((4-(difluoromethyl)pyridin-2-yl)amino)-4-methylpyridin-2-yl)-1H-1,2,3-triazol-1-yl)-3-hydroxy-3-methylbutanenitrile]
12.3 nM | Cc1cc(Nc2cc(C(F)F)ccn2)nc(-c2cn(CC3CNC(=O)C3)nn2)c1 (single isomer, unassigned) [Example 24.1, 4-((4-(6-((4-(difluoromethyl)pyridin-2-yl)amino)-4-methylpyridin-2-yl)-1H-1,2,3-triazol-1-yl)methyl)pyrrolidin-2-one]
8.6 nM | Cc1cc(Nc2cc(C(F)F)ccn2)nc(-c2cn(CC3CNC(=O)C3)nn2)c1 (single isomer, unassigned) [Example 24.2, 4-((4-(6-((4-(difluoromethyl)pyridin-2-yl)amino)-4-methylpyridin-2-yl)-1H-1,2,3-triazol-1-yl)methyl)pyrrolidin-2-one]
9.5 nM | Cc1cc(Nc2nccc(C(F)F)n2)cc(-c2cn(C3CCCC(O)C3O)nn2)c1 (single isomer, unassigned) [Example 25.1, 3-(4-(3-((4-(Difluoromethyl)pyrimidin-2-yl)amino)-5-methylphenyl)-1H-1,2,3-triazol-1-yl)cyclohexane-1,2-diol]
7.3 nM | Cc1cc(Nc2nccc(C(F)F)n2)cc(-c2cn(C3CCCC(O)C3O)nn2)c1 (single isomer, unassigned) [Example 25.2, 3-(4-(3-((4-(difluoromethyl)pyrimidin-2-yl)amino)-5-methylphenyl)-1H-1,2,3-triazol-1-yl)cyclohexane-1,2-diol]
5.7 nM | Cc1cc(Nc2cc(C(F)F)ccn2)nc(-c2cn(CC3CNCCO3)nn2)c1 (single isomer, unassigned) [Example 26.1, N-(4-(difluoromethyl)pyridin-2-yl)-4-methyl-6-(1-(morpholin-2-ylmethyl)-1H-1,2,3-triazol-4-yl)pyridin-2-amine]
3.3 nM | Cc1cc(Nc2cc(C(F)F)ccn2)nc(-c2cn(CC3CNCCO3)nn2)c1 (single isomer, unassigned) [Example 26.2, N-(4-(difluoromethyl)pyridin-2-yl)-4-methyl-6-(1-(morpholin-2-ylmethyl)-1H-1,2,3-triazol-4-yl)pyridin-2-amine]
19.7 nM | Cc1cc(Nc2nccc(C(F)F)n2)cc(-c2cn(CC(C)(O)CC#N)nn2)c1 (single isomer, unassigned) [Example 27.1, 4-(4-(3-((4-(difluoromethyl)pyrimidin-2-yl)amino)-5-methylphenyl)-1H-1,2,3-triazol-1-yl)-3-hydroxy-3-methylbutanenitrile]
21.1 nM | Cc1cc(Nc2nccc(C(F)F)n2)cc(-c2cn(CC(C)(O)CC#N)nn2)c1 (single isomer, unassigned) [Example 27.2, 4-(4-(3-((4-(Difluoromethyl)pyrimidin-2-yl)amino)-5-methylphenyl)-1H-1,2,3-triazol-1-yl)-3-hydroxy-3-methylbutanenitrile]
8.4 nM | Cc1cc(Nc2nccc(C(F)F)n2)cc(-c2cn(CC3CNC(=O)C3)nn2)c1 (single isomer, unassigned) [Example 28.1, 4-((4-(3-((4-(difluoromethyl)pyrimidin-2-yl)amino)-5-methylphenyl)-1H-1,2,3-triazol-1-yl)methyl)pyrrolidin-2-one]
5.4 nM | Cc1cc(Nc2nccc(C(F)F)n2)cc(-c2cn(CC3CNC(=O)C3)nn2)c1 (single isomer, unassigned) [Example 28.2, 4-((4-(3-((4-(difluoromethyl)pyrimidin-2-yl)amino)-5-methylphenyl)-1H-1,2,3-triazol-1-yl)methyl)pyrrolidin-2-one]
19.7 nM | Cc1cc(Nc2nccc(C(F)F)n2)cc(-c2cn(C3CCCC(C)(O)C3O)nn2)c1 (single isomer, unassigned) [Example 29.1, 3-(4-(3-((4-(Difluoromethyl)pyrimidin-2-yl)amino)-5-methylphenyl)-1H-1,2,3-triazol-1-yl)-1-methylcyclohexane-1,2-diol]
